Experimental findings from PubChem BioAssay (NCI) are described below.

Molecules are shown by their SMILES.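 48-hour exposure; five concentrations; linearly interpolated endpoints. TGI denotes the concentration required for complete inhibition of growth.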

Among the test systems are SNB-19 CNS; DU-145 prostate; CCRF-CEM leukemia; MALME-3M melanoma; SF-539 CNS; RXF 393 renal; HS 578T breast; OVCAR-3 ovarian; MDA-MB-231 breast; K-562 leukemia; MDA-N; 786-0 renal; HT29 colon; SK-MEL-5 melanoma; OVCAR-5 ovarian; TK-10 renal; UO-31 renal; SK-MEL-28 melanoma; OVCAR-8 ovarian; BT-549 breast.
Holding throughout (assay): growth of human tumour cells (NCI), 48 h

Regarding `Nc1ncnc2c1ncn2[C@@H]1O[C@H](COP(=O)(O)OP(=O)(O)OC[C@H]2O[C@@H](OCCCO)[C@H](O)[C@@H]2O)[C@@H](O)[C@H]1O`, the TGI in the test with SNB-19 CNS, with DU-145 prostate, with CCRF-CEM leukemia, in the test with MALME-3M melanoma, with SF-539 CNS and with RXF 393 renal was above 100 µM throughout. Further, the TGI in the test on HS 578T breast, with OVCAR-3 ovarian, in the test on MDA-MB-231 breast, in the test with K-562 leukemia, in the test on MDA-N and with 786-0 renal was above 100 µM each time. Also, the TGI in the test with HT29 colon, with SK-MEL-5 melanoma, in the test on OVCAR-5 ovarian, in the test on TK-10 renal, in the test on UO-31 renal and in the test with SK-MEL-28 melanoma was above 100 µM each time. The TGI with OVCAR-8 ovarian and in the test with BT-549 breast was above 100 µM each time.
As for `CC(=O)C1C(=O)C(C(C)=O)C2C3C=CC(C3)C12` (stereo not given), the TGI in the test on SNB-19 CNS, in the test on DU-145 prostate, in the test with CCRF-CEM leukemia, with MALME-3M melanoma, in the test on SF-539 CNS and in the test with RXF 393 renal was above 100 µM throughout. Also, the TGI in the test on HS 578T breast, with OVCAR-3 ovarian, in the test with MDA-MB-231 breast, in the test with K-562 leukemia, in the test on MDA-N and in the test on 786-0 renal was above 100 µM throughout. For the same compound, the TGI in the test with HT29 colon, with SK-MEL-5 melanoma, with OVCAR-5 ovarian, with TK-10 renal, with UO-31 renal and in the test on SK-MEL-28 melanoma was above 100 µM throughout. For the same compound, the TGI in the test on OVCAR-8 ovarian and in the test on BT-549 breast was above 100 µM throughout.
With `CN(CCNC(=O)c1nn(-c2ccc(Cl)cc2Cl)c2c1Cc1ccccc1-2)CCNC(=O)c1nn(-c2ccc(Cl)cc2Cl)c2c1Cc1ccccc1-2`, the TGI with SNB-19 CNS is above 100 µM; in the test on DU-145 prostate, above 61.9 µM; in the test on CCRF-CEM leukemia, 7.82 µM; in the test with MALME-3M melanoma, 3.42 µM; in the test with SF-539 CNS it was 3.68 µM; in the test on RXF 393 renal, 4.54 µM. The TGI was 32.5 µM with HS 578T breast; 17.4 µM with OVCAR-3 ovarian; 8.88 µM with MDA-MB-231 breast; above 26.3 µM in the test with K-562 leukemia; 4.89 µM in the test with MDA-N; 4.47 µM in the test with 786-0 renal. In addition, the TGI in the test with HT29 colon was 5.55 µM; in the test with SK-MEL-5 melanoma, 3.48 µM; in the test on OVCAR-5 ovarian, above 87.5 µM; in the test with TK-10 renal, 24.6 µM; with UO-31 renal, 7.81 µM; with SK-MEL-28 melanoma, 4.97 µM. For the same compound, the figures for the TGI with OVCAR-8 ovarian and in the test with BT-549 breast were 4.44 µM and 38.2 µM, respectively.
For the compound `CN(C)/C=C/c1c2c(nc3ccccc13)C(=O)c1cccnc1C2=O`, the TGI with SNB-19 CNS came to 1.95 µM; in the test on DU-145 prostate, 1.47 µM; in the test on CCRF-CEM leukemia it was 9.28 µM; in the test on MALME-3M melanoma, 2.26 µM; in the test with SF-539 CNS, 1.21 µM; with RXF 393 renal, 3.48 µM. Further, the TGI in the test on HS 578T breast is 4.65 µM; with OVCAR-3 ovarian, 1.09 µM; in the test on MDA-MB-231 breast, above 100 µM; with K-562 leukemia it was 3.75 µM; in the test with MDA-N it was 1.92 µM; with 786-0 renal, 1.33 µM. In addition, the TGI in the test with HT29 colon amounted to 5.15 µM; in the test on SK-MEL-5 melanoma, 0.346 µM; in the test on OVCAR-5 ovarian, 3.95 µM; with TK-10 renal, 4.03 µM; with UO-31 renal, 3.02 µM; in the test on SK-MEL-28 melanoma, 1.84 µM. Moreover, the TGI with OVCAR-8 ovarian amounted to 3.2 µM; in the test with BT-549 breast, 1.6 µM.
Consider `CCOC(=O)C(NC(=O)c1ccccc1)(c1ccc(S(=O)(=O)Nc2onc(C)c2C)cc1)C(F)(F)F` (stereo not given), for which the TGI with SNB-19 CNS, with DU-145 prostate, in the test on CCRF-CEM leukemia, with MALME-3M melanoma, with SF-539 CNS and with RXF 393 renal was above 100 µM each time. The TGI in the test on HS 578T breast, with OVCAR-3 ovarian, in the test on MDA-MB-231 breast, in the test with K-562 leukemia, in the test on MDA-N and with 786-0 renal was above 100 µM each time. Moreover, the TGI in the test with HT29 colon, in the test on SK-MEL-5 melanoma, in the test on OVCAR-5 ovarian, in the test with TK-10 renal, in the test with UO-31 renal and in the test on SK-MEL-28 melanoma was above 100 µM each time. The TGI with OVCAR-8 ovarian and in the test on BT-549 breast was above 100 µM each time.
Take `COc1ccccc1/C=N/Nc1nnc2c3ccccc3c3ncccc3c2n1`: the TGI was above 100 µM in the test with SNB-19 CNS; above 100 µM with DU-145 prostate; 78 µM in the test on CCRF-CEM leukemia; above 100 µM with MALME-3M melanoma; 76 µM in the test with SF-539 CNS; 55.6 µM in the test on RXF 393 renal. The TGI in the test with HS 578T breast is above 100 µM; with OVCAR-3 ovarian it was above 100 µM; in the test on MDA-MB-231 breast, above 100 µM; in the test with K-562 leukemia, above 100 µM; in the test on MDA-N it was above 100 µM; in the test with 786-0 renal, 90.6 µM. Further, the TGI in the test on HT29 colon, in the test with SK-MEL-5 melanoma, in the test with OVCAR-5 ovarian, with TK-10 renal, with UO-31 renal and in the test with SK-MEL-28 melanoma was above 100 µM throughout. In addition, the TGI with OVCAR-8 ovarian and in the test with BT-549 breast was above 100 µM in each case.
